{
  "source": "paper PMC7939384",
  "about": "“In crystallo screening for proline analog inhibitors of the proline cycle enzyme PYCR1” (The Journal of Biological Chemistry, 2021)",
  "key": {"[1]": {"tested_on": "MCF10A hRAS^V12 spheroids", "test": "Intracellular proline abundance in spheroids (GC-MS)", "assay_type": "cell-based", "settings": "5 mM, 5 days"}, "[2]": {"tested_on": "MCF10A hRAS^V12 breast cancer spheroids", "test": "13C5-glutamine tracer analysis of de novo proline biosynthesis in spheroids", "assay_type": "cell-based", "settings": "5 mM, 5th day of treatment, 13C5-glutamine incubation, vs untreated", "source_text": "We tested whether NFLP treatment decreases proline biosynthesis in breast cancer cells grown as spheroids. To do so we applied ^13C tracer analysis ([19]), which is a method that can inform about nutrient contribution to biosynthetic pathways, to MCF10A hRAS^V12 breast cancer spheroids grown in DMEM/F12 containing proline. Specifically, we measured the contribution of ^13C5-glutamine to proline, which enables us to conclude on changes in de novo proline biosynthesis.\nFigure 7 NFLP targets proline metabolism in breast cancer spheroids.A, abundance of proline M + 0 and M + 5 labeling in MCF10A hRAS^V12 spheroids upon ^13C5-glutamine incubation and treatment without (n = 3) or with NFLP (5 mM; n = 3). Analysis was performed at 5th day of treatment. B, relative abundance of intracellular proline levels in MCF10A hRAS^V12 spheroids upon treatment (5 days) without (n = 6), with THFA (n = 3) or with NFLP (n = 6). C, protein content in MCF10A hRAS^V12 spheroids treated for 5 days without (n = 6), with THFA (n = 3) or with NFLP (n = 6). Bar graphs show mean ± S.D. from biological independent samples and P-values were obtained with Mann-Whitney tests. […]\nTHFA and NFLP were supplemented (pH neutralized with NaOH) at day zero to the media of MCF10A H-RAS^V12 cells at the concentration of 5 mM. Protein levels were detected with the use of a […] (Thermo Scientific). […]"}, "[3]": {"target": "T1, E. coli PutA PRODH domain (EcPutA86-630) (Escherichia coli, UniProt P09546)", "T1 construct": "Proline Utilization A from E. coli (EcPutA86-630)", "T1 sequence (P09546 86-630)": "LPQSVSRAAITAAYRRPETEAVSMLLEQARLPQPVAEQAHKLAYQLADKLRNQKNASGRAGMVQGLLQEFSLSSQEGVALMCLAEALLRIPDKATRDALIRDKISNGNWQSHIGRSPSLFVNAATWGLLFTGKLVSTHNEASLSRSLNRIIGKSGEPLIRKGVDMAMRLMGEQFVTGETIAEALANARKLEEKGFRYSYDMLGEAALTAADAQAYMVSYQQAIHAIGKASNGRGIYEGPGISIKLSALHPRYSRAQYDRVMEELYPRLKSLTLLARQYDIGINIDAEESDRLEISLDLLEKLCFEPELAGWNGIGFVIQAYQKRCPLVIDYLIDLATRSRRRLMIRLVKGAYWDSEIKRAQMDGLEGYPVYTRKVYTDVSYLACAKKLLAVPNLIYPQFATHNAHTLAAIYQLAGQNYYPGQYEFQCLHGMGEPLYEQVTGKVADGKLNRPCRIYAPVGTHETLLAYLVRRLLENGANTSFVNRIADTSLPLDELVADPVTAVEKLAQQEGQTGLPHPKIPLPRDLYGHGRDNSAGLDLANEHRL", "test": "PRODH activity assay (o-AB/P5C adduct at 443 nm)", "assay_type": "biochemical", "settings": "100 mM NFLP as substrate; 0, 1, 5 or 10 mM NFLP with 100 mM L-proline", "method": "The rates have been normalized to the rate obtained in the absence of NFLP.\nAssays were performed to test whether NFLP is a substrate or inhibitor of PRODH. Because of challenges in obtaining active recombinant human PRODH, which is an inner mitochondrial membrane protein, these experiments used the PRODH domain of the bifunctional proline catabolic enzyme, Proline Utilization A from E. coli (EcPutA86-630). The active sites of human and bacterial PutA PRODH domains are very highly conserved. For example, all residues that contact proline analog inhibitors in crystal structures of bacterial PRODHs are identically present in human PRODH, as we described previously ([6]). Thus, bacterial PRODHs are considered to be good surrogates for identifying inhibitors of human PRODH. Indeed, the inhibitors discovered using bacterial PRODHs show on-target activity in cancer cells and animal models of cancer ([5], [21]).\nPRODH activity was measured in a BioTek Epoch 2 microplate spectrophotometer by monitoring P5C as the adduct formed by the reaction with o-AB at 443 nm. The assays were conducted at 25°C in 20 mM MOPS, pH 7.5, and 10 mM MgCl2 with 4 mM o-AB, 0.15 mM menadione (electron acceptor to re-oxidize the FAD), and 1.3 μM of EcPutA86-630. The enzyme mixture contained EcPutA86-630, o-AB, menadione, and buffer. […]"}, "[4]": {"tested_on": "MCF10A hRAS^V12 spheroids", "test": "Spheroid growth based on protein content", "assay_type": "cell-based", "settings": "5 mM, 5 days"}},
  "data": [
    {"smiles": "O=CN1CCC[C@H]1C(=O)O", "note": "[NFLP, N-formyl L-proline]", "values": [
      {"measurement": "increase of intracellular proline abundance compared with THFA", "setting": "[1]", "result": "about 10 fold"},
      {"measurement": "increase of intracellular proline abundance compared with control", "setting": "[1]", "result": "~40", "unit": "fold"},
      {"measurement": "13C-labeled (M + 5) fraction of proline", "setting": "[2]", "result": "decreased"},
      {"measurement": "unlabeled (M + 0) fraction of proline", "setting": "[2]", "result": "increased"},
      {"measurement": "substrate or inhibitor of bacterial PRODH (in words)", "setting": "[3]", "result": "neither a substrate nor an inhibitor"},
      {"measurement": "reduction of spheroid growth based on protein content compared with control", "setting": "[4]", "result": 50, "unit": "%"}
    ]}
  ]
}
